Results from patent US20110009351A1, “SCREENING ASSAY TO IDENTIFY CORRECTORS OF PROTEIN TRAFFICKING DEFECTS” (Traffick Therepeutics Inc., priority 2007, published 2011).
Entries after “also recorded” stand apart in the source; their conditions may differ. Counter-ions that a name gives are not always drawn.

Experiments:
Assay type in all cases: cell-based
ΔF508-CFTR [1] = molecular target: T1, ΔF508-CFTR (Homo sapiens, UniProt P13569, DEL508-508); parameters: which was then ligated into full length pNUT-CFTR linearized using Hpa1 and Pml1; expressed in transfected cells; details: for hit in screen (class letter) / hit in screen (score): Prestwick library, initial corrector assay; for hit in screen (class letter): BHK cells; for hit in screen (score): standard deviations above untreated controls
T1 sequence (P13569 with tags, fused parts or gaps DEL508-508): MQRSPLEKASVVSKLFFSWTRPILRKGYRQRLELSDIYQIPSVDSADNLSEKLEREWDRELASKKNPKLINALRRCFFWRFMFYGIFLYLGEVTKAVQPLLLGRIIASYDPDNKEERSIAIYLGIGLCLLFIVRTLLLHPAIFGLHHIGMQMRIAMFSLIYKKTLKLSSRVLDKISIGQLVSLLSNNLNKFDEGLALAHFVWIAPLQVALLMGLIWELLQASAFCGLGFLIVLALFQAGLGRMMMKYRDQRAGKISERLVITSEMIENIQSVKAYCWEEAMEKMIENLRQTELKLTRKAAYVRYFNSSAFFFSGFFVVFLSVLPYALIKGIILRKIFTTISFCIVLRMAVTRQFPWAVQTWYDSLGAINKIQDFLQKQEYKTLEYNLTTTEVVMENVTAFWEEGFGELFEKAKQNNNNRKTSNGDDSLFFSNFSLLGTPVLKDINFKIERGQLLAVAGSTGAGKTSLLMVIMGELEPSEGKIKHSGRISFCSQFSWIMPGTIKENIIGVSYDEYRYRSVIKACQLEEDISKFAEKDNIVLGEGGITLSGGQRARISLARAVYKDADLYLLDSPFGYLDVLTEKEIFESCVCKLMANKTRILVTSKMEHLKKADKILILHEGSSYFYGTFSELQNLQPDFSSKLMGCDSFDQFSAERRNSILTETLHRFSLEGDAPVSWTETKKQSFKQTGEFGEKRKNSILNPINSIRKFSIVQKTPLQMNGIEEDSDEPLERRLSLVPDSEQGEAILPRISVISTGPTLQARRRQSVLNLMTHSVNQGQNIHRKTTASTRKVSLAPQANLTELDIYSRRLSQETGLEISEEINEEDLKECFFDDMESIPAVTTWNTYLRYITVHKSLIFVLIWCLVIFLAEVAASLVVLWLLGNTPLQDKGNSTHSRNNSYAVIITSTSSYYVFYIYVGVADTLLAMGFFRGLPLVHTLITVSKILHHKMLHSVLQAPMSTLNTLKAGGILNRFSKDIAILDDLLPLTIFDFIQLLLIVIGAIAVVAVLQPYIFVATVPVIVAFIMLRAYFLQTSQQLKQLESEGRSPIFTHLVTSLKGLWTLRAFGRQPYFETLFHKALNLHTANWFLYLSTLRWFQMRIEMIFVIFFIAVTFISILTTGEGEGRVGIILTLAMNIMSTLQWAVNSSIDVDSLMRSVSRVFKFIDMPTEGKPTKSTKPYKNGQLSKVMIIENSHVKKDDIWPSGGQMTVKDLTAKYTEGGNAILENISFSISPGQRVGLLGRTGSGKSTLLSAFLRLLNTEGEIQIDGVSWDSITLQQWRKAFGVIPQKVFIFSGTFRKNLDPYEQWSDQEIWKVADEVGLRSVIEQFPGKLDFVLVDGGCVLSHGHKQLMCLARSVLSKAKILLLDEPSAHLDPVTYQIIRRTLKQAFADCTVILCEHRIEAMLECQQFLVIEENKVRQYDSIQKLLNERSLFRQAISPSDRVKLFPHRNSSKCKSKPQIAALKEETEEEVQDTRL
Summary of the method: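 BHK cells stably expressing 3HA-tagged ΔF508-CFTR (tags in fourth extracellular loop) treated with compound at 20 μM final for 24 h at 37° C. Surface ΔF508-CFTR measured on fixed, non-permeabilised cells by anti-HA/FITC immunofluorescence (488/510 nm), relative to untreated-well background; hits retested in duplicate, intrinsically fluorescent compounds excluded.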

ΔF508-CFTR [2] = molecular target: T1, ΔF508-CFTR; assay: iodide efflux assay in CFBE41o− airway epithelial cells; parameters: expressed in transfected cells; host or cells: CFBE41o- (ΔF508/ΔF508) transduced with ΔF508-CFTR, TranzVector lentivirus, provided by J. P. Clancy; details: 10 μM pretreatment
Description: Experiments were performed by hand or with a robotic liquid handling system (BioRobot 8000, Qiagen, USA) using Qiagen 4.1 software. Cells were cultured in 24-well plates until they reached confluence in order to perform parallel experiments and comparison analysis. After treatment (or not) with a test compound, medium in each well was replaced with 1 ml of iodide loading buffer (in mM: 136 NaI, 3 KNO3, 2 Ca(NO3)2, 11 glucose and 20 Hepes pH 7.4) for 1 hour at 37° C. to permit the I′ to reach equilibrium. […] The loss of intracellular I^− was determined by removing the medium and replacing it with fresh efflux buffer every 1 min for up to 11 min. […] The iodide concentration of each aliquot was determined using an iodide-sensitive electrode (Orion Research Inc., Boston, Mass., USA or Ecomet) and converted to iodide content (i.e. the amount of iodide released during the 1 min interval). […]
Iodide effluxes were performed using a robotic liquid handling system (BioRobot 8000, Qiagen, Valencia, Calif.) and Qiagen 4.1 software. […] Efflux was measured by replacing the medium with 300 μl fresh efflux buffer at 1 min intervals for up to 11 min. […] Iodide concentration was measured in each aliquot (300 μl) using an iodide-sensitive electrode (Orion Research Inc., Boston, Mass.). […]

ΔF508-CFTR [3] = molecular target: T1, ΔF508-CFTR; assay: iodide efflux assay in BHK cells expressing ΔF508-CFTR; parameters: which was then ligated into full length pNUT-CFTR linearized using Hpa1 and Pml1; expressed in transfected cells; details: 24 hours, BHK
Description: Experiments were performed by hand or with a robotic liquid handling system (BioRobot 8000, Qiagen, USA) using Qiagen 4.1 software. Cells were cultured in 24-well plates until they reached confluence in order to perform parallel experiments and comparison analysis. After treatment (or not) with a test compound, medium in each well was replaced with 1 ml of iodide loading buffer (in mM: 136 NaI, 3 KNO3, 2 Ca(NO3)2, 11 glucose and 20 Hepes pH 7.4) for 1 hour at 37° C. to permit the I′ to reach equilibrium. At the beginning of each experiment, the loading buffer was removed by aspiration and cells were washed eight times with efflux buffer (same as loading buffer except that NaI was replaced with 136 mM NaNO3) to remove extracellular I^− in each well. The loss of intracellular I^− was determined by removing the medium and replacing it with fresh efflux buffer every 1 min for up to 11 min. The first four aliquots were recovered at 1-minute intervals in an empty 24-well plate and used to establish a stable baseline in efflux buffer alone. A stimulation buffer (efflux buffer containing 50 μM genistein+10 μM forskolin) was then added and sampling continued with replacement by stimulation buffer. The iodide concentration of each aliquot was determined using an iodide-sensitive electrode (Orion Research Inc., Boston, Mass., USA or Ecomet) and converted to iodide content (i.e. the amount of iodide released during the 1 min interval). Curves were constructed by plotting concentration versus time. Data are presented as means±SEM.
Iodide effluxes were performed using a robotic liquid handling system (BioRobot 8000, Qiagen, Valencia, Calif.) and Qiagen 4.1 software. Cells were cultured to confluence in 24-well plates. After treatment (or not) with a test compound, the medium in each well was replaced with 1 ml of iodide loading buffer: 136 mM NaI, 3 mM KNO3, 2 mM Ca(NO3)2, 11 mM glucose, 20 mM Hepes, pH 7.4 with NaOH) and incubated for 1 h at 37° C. At the beginning of each experiment, the loading buffer was removed by aspiration and cells were washed eight times with 300 μl efflux buffer (same as loading buffer except that NaI was replaced with 136 mM NaNO3) to remove extracellular I^−. Efflux was measured by replacing the medium with 300 μl fresh efflux buffer at 1 min intervals for up to 11 min. The first four aliquots were used to establish a stable baseline, then buffer containing 10 μM forskolin+50 μM genistein was used to stimulate CFTR activity. Iodide concentration was measured in each aliquot (300 μl) using an iodide-sensitive electrode (Orion Research Inc., Boston, Mass.). Relative iodide efflux rate was calculated using the difference between maximum (peak) iodide concentration during stimulation and minimum iodide concentration before stimulation (in μM/min). […]

ΔF508-CFTR [4] = molecular target: T1, ΔF508-CFTR; assay: immunoblot and densitometry of mature band C, BHK cells expressing ΔF508-CFTR; parameters: which was then ligated into full length pNUT-CFTR linearized using Hpa1 and Pml1; expressed in transfected cells; details: after sildenafil treatment
Description: Cell lysates were quantitated by Bradford assay (BioRad) and separated by SDS-PAGE (6% polyacrylamide gels) and analyzed by Western blotting. Western blots were blocked using 5% skimmed milk in PBS, then probed overnight at 4° C. with a primary anti-CFTR antibody at a dilution of 1:1000 monoclonal mouse antibody (clone M3A7, Chemicon). The blots were washed four times in PBS before the addition of the secondary HRP-conjugated anti-mouse antibody, at a dilution of 1:5000 (Amersham) for one hour at room temperature. The blots were washed five times in PBS and probed for chemiluminescence (Pierce). All samples were run with equal protein loading as determined using the Bradford assay (Biorad). Densitometry of the immunoblots was performed using the ImageJ program (National Institutes of Health).
Total protein was quantified in cell lysates using the Bradford assay (BioRad, Hercules, Calif.), separated using SDS-PAGE (6% polyacrylamide gels), and analyzed by Western blotting as described previously (Robert et al., 2007). Western blots were blocked with 5% skimmed milk in PBS and probed overnight at 4° C. with a monoclonal primary anti-CFTR antibody (clone M3A7, Chemicon, Temecula, Calif.) diluted 1:1000. The blots were washed four times in PBS before adding the secondary HRP-conjugated anti-mouse antibody at a dilution of 1:5000 (Amersham, Piscataway, N.J.) for one hour at room temperature, then washed again five times in PBS and visualized using chemiluminescence (Pierce, Rockford, Ill.). The relative intensity of each CFTR glycoform (band B or band C) was estimated by densitometry using the ImageJ software and reported as a percentage of the total CFTR in the same lane (i.e. B+C).

ΔF508-CFTR [5] = molecular target: T1, ΔF508-CFTR; assay: three stage ELISA of CFTR surface expression, BHK cells expressing ΔF508-CFTR; parameters: which was then ligated into full length pNUT-CFTR linearized using Hpa1 and Pml1; expressed in transfected cells; details: 10% glycerol or 1 mM sodium 4-phenylbutyrate, 24 hours
Description: Cells were screened for CFTR surface expression using a three stage ELISA system (Pierce Inc., USA). Briefly, BHK cells expressing 3HA-tagged ΔF508-CFTR were seeded in 96-well plates (Corning, USA) at 30,000 cells per well and incubated for 24 h at 37° C. Each well was treated with a test compound for 24 h, then cells were fixed in 4% paraformaldehyde solution and washed with PBS containing 0.1% bovine serum albumin and 0.05% tween-20. Cells were blocked for 1 h in solution containing 3% normal horse serum in PBS at room temperature. […] After washing four more times, the cells were exposed to 3,3′,5,5′ tetramethylbenzidine (Pierce Inc., USA) for 15 min, sulphuric acid (2M) was added, and absorbance was measured at 450 nm (Power-Wavex Bio-tek Instruments).
To determine if cell surface expression of CFTR could be quantified in a high-throughput screen using this assay, cells expressing tagged versions of wt or ΔF508-CFTR were seeded in 96-well plates, treated with 10% glycerol and monitored as light absorbance using an enzyme-linked assay system. As expected, untreated ΔF508-CFTR cells had low absorbance since they expressed little CFTR on their cell surface under control conditions (FIG. 3A).

F508del CFTR = molecular target: T2, F508del CFTR (Homo sapiens, UniProt P13569, DEL508-508); assay: YFP fluorescence quenching functional assay (iodide influx), HEK293 cells with F508del CFTR and halide sensitive YFP; details: HEK293; 10 μM, 24 h; nc = 100% pc = 69.2; read-out: % YFP quench
T2 construct: expressed in transfected cells; host or cells: HEK293 Griptite cells stably expressing F508del CFTR, transiently transfected with halide-sensitive eYFP
T2 sequence (P13569 with tags, fused parts or gaps DEL508-508): as above
Summary of the method: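 HEK293 Griptite cells stably expressing F508del CFTR, transiently transfected with halide-sensitive eYFP, treated 24 h with 10 μM compound in triplicate, then stimulated 20 min with 25 μM forskolin, 45 μM IBMX and 50 μM genistein. YFP quench after 50 mM iodide imaged 15 times over 40 s on 150-300 cells/well.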

Row | Compound | remaining activity at 10 µM (F508del CFTR) | hit in screen (class letter) (ΔF508-CFTR [1]) | hit in screen (score) (ΔF508-CFTR [1]) | further results
1 | CCCc1nn(C)c2c(=O)[nH]c(-c3cc(S(=O)(=O)N4CCN(C)CC4)ccc3OCC)nc12 [sildenafil] | – | – | – | signal in the trafficking assay (ΔF508-CFTR [1]; Microsource Discovery library, medium and weak hits, 20 μM, 24 hours): consistently elevated signal; iodide efflux (ΔF508-CFTR [2]): negative result; cAMP-stimulated iodide efflux (ΔF508-CFTR [3]; 10 μM pretreatment): did not restore a strong cAMP-stimulated iodide efflux responses; also recorded: did not produce significant iodide efflux; cAMP-stimulated iodide efflux (ΔF508-CFTR [3]; 1 mM): strong cAMP-stimulated iodide efflux was detected; also recorded: function was detected; increase in the intensity of the mature band C (ΔF508-CFTR [4]): 30%
2 | O=C([O-])CCCc1ccccc1.[Na+] [sodium 4-phenylbutyrate] | – | – | – | increase in signal, suitability as positive control for the corrector assay screen (ΔF508-CFTR [1]; kifunesine 100 μM, Sodium 4 Phenylbutyrate 1 mM, curcumin 40 μM, 24 hours): not sufficient to act as a positive control; plasma membrane signal (absorbance), words (ΔF508-CFTR [5]): increased the plasma membrane signal
3 | c1ccc2[nH]c(-c3cscn3)nc2c1 [Tiabendazole] | 907% | W (Medium and weak hits were defined as compounds giving a cell fluorescence signal that was between 2 and 3 or 1 and 2 standard deviations, respectively, above untreated control wells) | 1.0 | –
4 | CC(C(=O)O)c1cccc(Oc2ccccc2)c1 (stereo not shown) [Fenoprofen calcium salt dihydrate] | 88% | W (Medium and weak hits were defined as compounds giving a cell fluorescence signal that was between 2 and 3 or 1 and 2 standard deviations, respectively, above untreated control wells) | 1.1 | –
5 | CC[C@H]1OC(=O)[C@H](C)[C@@H](O[C@H]2C[C@@](C)(OC)[C@@H](O)[C@H](C)O2)[C@H](C)[C@@H](O[C@@H]2O[C@H](C)C[C@H](N(C)C)[C@H]2O)[C@](C)(O)C[C@@H](C)/C(=N\OCOCCOC)[C@H](C)[C@@H](O)[C@]1(C)O [Roxithromycin] | 100% | W (Medium and weak hits were defined as compounds giving a cell fluorescence signal that was between 2 and 3 or 1 and 2 standard deviations, respectively, above untreated control wells) | 1.2 | –
